System: SKOV3 ovarian cells
Assay: Cytotoxicity of ADCs against SKOV3 cell lines (viable cells by ATP content, CellTiter-Glo)
Format: cell-based
Settings: SKOV3 ovarian cancer cells, 3 to 5 days incubation with ADC, % survival curve fit
Protocol: The cytotoxic activity of Trastuzumab ADCs of Formula (IV) was tested against SKOV3 ovarian cell lines
SKOV3 ovarian cells were incubated with the effectors for a period corresponding to 2 to 3 times their estimated doubling time and the amount of viable cells was determine by measuring ATP content in the wells. […] All ADCs were diluted in DPBS to 6× the highest concentration tested, followed by 10 3-fold serial dilutions in DPBS for a total of 11 concentration points. Each point was added to triplicate wells. DPBS was added in wells to measure the maximum growth. Cells were diluted at their appropriate seeding density (ranging from 150 to 1000 cells per well) in complete media supplemented with glutamine 2 mM, serum and antibiotic cocktail. […] Total ATP was measured using CellTiter-Glo™ reagent from Promega as recommended by the supplier. […] Signal output was measured on a luminescence plate reader (Envision™, Perkin Elmer) set at an integration time of 0.1 sec. […]
Each concentration point (S) was normalized to the negative control wells (NC) and expressed as % survival (NC-S/NC×100). Potency (IC50) and efficacy were calculated from a non-linear curve fit of the points versus log of the concentrations without constrain on the slope. Refined data were analysed using Prism™ software.

Substance: Synagis-SMCC-DM1: negative control ADC
- IC50: 4.01 nM

From patent US20220267281A1, “UNSATURATED HETEROCYCLOALKYL AND HETEROAROMATIC ACYL HYDRAZONE LINKERS, METHODS AND USES THEREOF” (priority 2019, published 2022)
